Data on 1 substance can be found in US20190374590A1, “USE OF CORDYCEPS MILITARIS EXTRACT FOR TREATMENT OF RENAL DISEASE” (Nan Pao Resins Chemical Co., Ltd., priority 2018, published 2019).

In test [1] the test system is nephrin protein level in AB8/13 human podocytes. As to the kind of experiment: Western blotting of nephrin protein level in differentiated AB8/13 human podocytes. The format is cell-based. Conditions: FIG. 1; substance alone, compared to dimethyl sulfoxide; 6 days incubation. How it is done:
(§1) Firstly, AB8/13 human podocytes were incubated in a 33[…] incubator containing 5% carbon dioxide until they grew to a confluence of 80%. The cells were transferred to a 37.5[…] incubator containing 5% carbon dioxide to be incubated for 14 days so that the cells were differentiated. After which, the differentiated cells were incubated with culture medium containing various substances for 6 days. Finally, total protein of the differentiated cells treated with various substances was extracted for Western blotting assay.
(§2) As stated in Diabetes, 2011 Jun; 60(6): 1779-1788, transforming growth factor-β1 (TGF-β1) is greatly expressed in the renal tissue of a diabetic nephropathy patient. This paper further has reported that transforming growth factor-β1 can dedifferentiate differentiated podocytes and induce the disappearance of pseudopods. As stated in Cell Tissue Res. 2012 Jan; 347(1): 141-54, transforming growth factor-β1 participates in renal fibrosis, renal parenchyma degeneration and loss of function associated with chronic kidney disease. For the above reasons, podocytes treated with transforming growth factor-β1 can be used as a cell culture model for renal disease.
(In general: In western blotting, separated proteins are transferred to a membrane and probed.)

The test system of test [2] is a-smooth muscle actin protein level in AB8/13 human podocytes. As to the kind of experiment: Western blotting of α-smooth muscle actin protein level in differentiated AB8/13 human podocytes. The test is classed as cell-based. Conditions: FIG. 2; substance alone (without TGF-β1), compared to dimethyl sulfoxide; 6 days incubation. How it is done: as §1, §2

In the case of transforming growth factor-β1, the nephrin protein level result in test [1] is reported as “downregulate”. Also, the “a-smooth muscle actin protein level” value in test [2] is reported as “upregulate”.
